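Dose response: 5 concentrations. Exposure: 48 h. Format: 96-well plates. Endpoint: linear interpolation; highest concentration if not reached. At the GI50, growth is halved. Definition used: TGI = concentration required for complete inhibition of growth.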
Assays:
Assay in all cases: NCI-60 cell line screen, 48 h
SR leukemia = tested on: SR leukemia
SNB-19 CNS = tested on: SNB-19 CNS
NCI/ADR-RES ovarian = tested on: NCI/ADR-RES ovarian
HCT-15 colon = tested on: HCT-15 colon
ACHN renal = tested on: ACHN renal
TK-10 renal = tested on: TK-10 renal
NCI-H460 lung = tested on: NCI-H460 lung
U251 CNS = tested on: U251 CNS
SK-MEL-28 melanoma = tested on: SK-MEL-28 melanoma
RXF 393 renal = tested on: RXF 393 renal
NCI-H226 lung = tested on: NCI-H226 lung
KM12 colon = tested on: KM12 colon
K-562 leukemia = tested on: K-562 leukemia
M14 melanoma = tested on: M14 melanoma
EKVX NSCLC = tested on: EKVX NSCLC
MALME-3M melanoma = tested on: MALME-3M melanoma
OVCAR-8 ovarian = tested on: OVCAR-8 ovarian
UACC-257 melanoma = tested on: UACC-257 melanoma
OVCAR-5 ovarian = tested on: OVCAR-5 ovarian
HOP-62 NSCLC = tested on: HOP-62 NSCLC
LOX IMVI melanoma = tested on: LOX IMVI melanoma
HL-60(TB) leukemia = tested on: HL-60(TB) leukemia
A549 NSCLC = tested on: A549 NSCLC
MOLT-4 leukemia = tested on: MOLT-4 leukemia
MCF7 breast = tested on: MCF7 breast
NCI-H522 lung = tested on: NCI-H522 lung
UACC-62 melanoma = tested on: UACC-62 melanoma
SW-620 colon = tested on: SW-620 colon
HT29 colon = tested on: HT29 colon
CCRF-CEM leukemia = tested on: CCRF-CEM leukemia
HOP-92 NSCLC = tested on: HOP-92 NSCLC
HS 578T breast = tested on: HS 578T breast
SF-539 CNS = tested on: SF-539 CNS
SF-295 CNS = tested on: SF-295 CNS
OVCAR-4 ovarian = tested on: OVCAR-4 ovarian
SN12C renal = tested on: SN12C renal
BT-549 breast = tested on: BT-549 breast
HCC-2998 colon = tested on: HCC-2998 colon
T-47D breast = tested on: T-47D breast
DU-145 prostate = tested on: DU-145 prostate
OVCAR-3 ovarian = tested on: OVCAR-3 ovarian
SNB-75 CNS = tested on: SNB-75 CNS
CAKI-1 renal = tested on: CAKI-1 renal
SF-268 CNS = tested on: SF-268 CNS
SK-MEL-5 melanoma = tested on: SK-MEL-5 melanoma
HCT-116 colon = tested on: HCT-116 colon
NCI-H23 lung = tested on: NCI-H23 lung
MDA-MB-231 breast = tested on: MDA-MB-231 breast
PC-3 prostate = tested on: PC-3 prostate
SK-OV-3 ovarian = tested on: SK-OV-3 ovarian
COLO 205 colon = tested on: COLO 205 colon
UO-31 renal = tested on: UO-31 renal
IGROV1 ovarian = tested on: IGROV1 ovarian
786-0 renal = tested on: 786-0 renal
RPMI-8226 leukemia = tested on: RPMI-8226 leukemia
MDA-MB-468 breast = tested on: MDA-MB-468 breast
MDA-MB-435 = tested on: MDA-MB-435
SK-MEL-2 melanoma = tested on: SK-MEL-2 melanoma
A498 renal = tested on: A498 renal

`COC(=O)c1c(C(=O)OC)c2n(c1C)[C@@H]([C@@H](C)[C@H]1CC[C@H]3[C@@H]4CCC5=CC(=O)CC[C@]5(C)[C@H]4CC[C@]13C)SC2` was tested, and the GI50 (SR leukemia) was 3.5 µM, the TGI (SR leukemia) was over 100 µM and the GI50 (SNB-19 CNS) was 8.15 µM. For the same molecule, the TGI (SNB-19 CNS) was over 100 µM, the GI50 (NCI/ADR-RES ovarian) was 3.13 µM and the TGI (NCI/ADR-RES ovarian) was over 100 µM. The GI50 (HCT-15 colon) was 3.69 µM, the TGI (HCT-15 colon) was over 100 µM and the GI50 (ACHN renal) was 3.36 µM. It also gave a TGI (ACHN renal) of over 100 µM, a GI50 (TK-10 renal) of 6.34 µM and a TGI (TK-10 renal) of over 100 µM. For the same molecule, the GI50 (NCI-H460 lung) was 5.25 µM, the TGI (NCI-H460 lung) was over 100 µM and the GI50 (U251 CNS) was 4.56 µM. For the same molecule, the TGI (U251 CNS) was over 100 µM, the GI50 (SK-MEL-28 melanoma) was 4.34 µM and the TGI (SK-MEL-28 melanoma) was over 100 µM. For the same molecule, the GI50 (RXF 393 renal) was 8.82 µM, the TGI (RXF 393 renal) was 52.4 µM and the GI50 (NCI-H226 lung) was 2.58 µM. The TGI (NCI-H226 lung) was 61.8 µM, the GI50 (KM12 colon) was 4.17 µM and the TGI (KM12 colon) was over 100 µM. The GI50 (K-562 leukemia) was 0.908 µM, the TGI (K-562 leukemia) was over 100 µM and the GI50 (M14 melanoma) was 4.81 µM. The TGI (M14 melanoma) was over 100 µM, the GI50 (EKVX NSCLC) was 2.34 µM and the TGI (EKVX NSCLC) was over 100 µM. The GI50 (MALME-3M melanoma) was 4.44 µM, the TGI (MALME-3M melanoma) was 72.9 µM and the GI50 (OVCAR-8 ovarian) was 3.32 µM. The TGI (OVCAR-8 ovarian) was over 100 µM, the GI50 (UACC-257 melanoma) was 3.22 µM and the TGI (UACC-257 melanoma) was over 100 µM. For the same molecule, the GI50 (OVCAR-5 ovarian) was 4.67 µM, the TGI (OVCAR-5 ovarian) was over 100 µM and the GI50 (HOP-62 NSCLC) was 24.3 µM. For the same molecule, the TGI (HOP-62 NSCLC) was over 100 µM, the GI50 (LOX IMVI melanoma) was 3.86 µM and the TGI (LOX IMVI melanoma) was over 100 µM. For the same molecule, the GI50 (HL-60(TB) leukemia) was 2.34 µM, the TGI (HL-60(TB) leukemia) was 14 µM and the GI50 (A549 NSCLC) was 4.29 µM. The TGI (A549 NSCLC) was over 100 µM, the GI50 (MOLT-4 leukemia) was 2.02 µM and the TGI (MOLT-4 leukemia) was 6.34 µM. For the same molecule, the GI50 (MCF7 breast) was 2.6 µM, the TGI (MCF7 breast) was over 100 µM and the GI50 (NCI-H522 lung) was 2.55 µM. For the same molecule, the TGI (NCI-H522 lung) was 53.8 µM, the GI50 (UACC-62 melanoma) was 2.21 µM and the TGI (UACC-62 melanoma) was over 100 µM. It also gave a GI50 (SW-620 colon) of 7.25 µM, a TGI (SW-620 colon) of over 100 µM and a GI50 (HT29 colon) of 3.75 µM. The TGI (HT29 colon) was over 100 µM, the GI50 (CCRF-CEM leukemia) was 3.41 µM and the TGI (CCRF-CEM leukemia) was over 100 µM. The GI50 (HOP-92 NSCLC) was 6.99 µM, the TGI (HOP-92 NSCLC) was 54.4 µM and the GI50 (HS 578T breast) was 8.22 µM. It also gave a TGI (HS 578T breast) of over 100 µM, a GI50 (SF-539 CNS) of 7.07 µM and a TGI (SF-539 CNS) of 84.1 µM. It also gave a GI50 (SF-295 CNS) of 2.68 µM, a TGI (SF-295 CNS) of 27.9 µM and a GI50 (OVCAR-4 ovarian) of 3.05 µM. It also gave a TGI (OVCAR-4 ovarian) of over 100 µM, a GI50 (SN12C renal) of 4.06 µM and a TGI (SN12C renal) of over 100 µM. The GI50 (BT-549 breast) was 1.8 µM, the TGI (BT-549 breast) was 4.99 µM and the GI50 (HCC-2998 colon) was 6.47 µM. For the same molecule, the TGI (HCC-2998 colon) was over 100 µM, the GI50 (T-47D breast) was 2.1 µM and the TGI (T-47D breast) was over 100 µM. It also gave a GI50 (DU-145 prostate) of 9.83 µM, a TGI (DU-145 prostate) of over 100 µM and a GI50 (OVCAR-3 ovarian) of 5.08 µM. For the same molecule, the TGI (OVCAR-3 ovarian) was over 100 µM, the GI50 (SNB-75 CNS) was 11.3 µM and the TGI (SNB-75 CNS) was 49.7 µM. The GI50 (CAKI-1 renal) was 3.93 µM, the TGI (CAKI-1 renal) was over 100 µM and the GI50 (SF-268 CNS) was 6.58 µM. The TGI (SF-268 CNS) was over 100 µM, the GI50 (SK-MEL-5 melanoma) was 1.53 µM and the TGI (SK-MEL-5 melanoma) was 3.68 µM. The GI50 (HCT-116 colon) was 3 µM, the TGI (HCT-116 colon) was over 100 µM and the GI50 (NCI-H23 lung) was 3.79 µM. It also gave a TGI (NCI-H23 lung) of over 100 µM, a GI50 (MDA-MB-231 breast) of 9.73 µM and a TGI (MDA-MB-231 breast) of over 100 µM. For the same molecule, the GI50 (PC-3 prostate) was 2.31 µM, the TGI (PC-3 prostate) was over 100 µM and the GI50 (SK-OV-3 ovarian) was 29.3 µM. It also gave a TGI (SK-OV-3 ovarian) of over 100 µM, a GI50 (COLO 205 colon) of 4.94 µM and a TGI (COLO 205 colon) of over 100 µM. It also gave a GI50 (UO-31 renal) of 2.91 µM, a TGI (UO-31 renal) of over 100 µM and a GI50 (IGROV1 ovarian) of 18.7 µM. It also gave a TGI (IGROV1 ovarian) of over 100 µM, a GI50 (786-0 renal) of 11.3 µM and a TGI (786-0 renal) of over 100 µM. It also gave a GI50 (RPMI-8226 leukemia) of 1.56 µM, a TGI (RPMI-8226 leukemia) of over 100 µM and a GI50 (MDA-MB-468 breast) of 1.93 µM. It also gave a TGI (MDA-MB-468 breast) of 16.6 µM, a GI50 (MDA-MB-435) of 3.25 µM and a TGI (MDA-MB-435) of over 100 µM. The GI50 (SK-MEL-2 melanoma) was 4.02 µM, the TGI (SK-MEL-2 melanoma) was over 100 µM and the GI50 (A498 renal) was 17.1 µM. For the same molecule, the TGI (A498 renal) was over 100 µM.
